Test results as given in patent publication US11696537B2, “Composition and method for increasing the content of glucosinolates in adult plants of the genus brassica” (CONSEJO SUPERIOR DE INVESTIGACIONES CIENTÍFICAS (CSIC), priority 2018, dated 2023).

Experiments:
[1] = test system: Brassica oleracea var. Italica Parthenon; experiment: Greenhouse test: concentration of glucosinolates on leaves and inflorescences after foliar application; assay type: in vivo
Protocol: (§1) In a growth chamber, seeds of the broccoli cultivar (Brassica oleracea var. Italica) Parthenon which grew for 30 days were germinated. Subsequently, they were allowed to grow in a greenhouse for 75 days until the inflorescences reached commercial size. In this case, foliar application of the treatments indicated below was carried out by spraying between 100 and 150 ml per plant: one at the time the flower bud appears and the following applications 5 and 10 days, respectively, after the first application.
Control composition: consisting of a solution containing 0.2% by volume of ethanol and 99.8% by volume of water.
Surfactant composition 1 (Triton X-100): consisting of a solution containing 0.1% by volume of Triton X-100 surfactant and 99.9% by volume of water.
Surfactant composition 2 (MPP): consisting of a solution containing 0.1% by volume of the modified polysiloxane polyether surfactant and 99.9% by volume of water.
Elicitor composition (MeJA): consisting of a solution containing 0.0022% by volume of MeJA, 0.2% by volume of ethanol and 99.7978% by volume of water.
Composition 2 (MeJA+Triton X-100): consisting of a solution containing 0.0022% by volume of MeJA, 0.2% by volume of ethanol, 0.1% by volume of Triton X-100 and 99.70% by volume of water.
Composition 1 (MeJA+MPP): A solution was prepared containing 0.0022% by volume of MeJA (for a final concentration of 100 micromolar in the composition), 0.2% by volume of ethanol, 0.1% by volume of polysiloxane polyether and 99.7968% by volume of water.
Subsequently, the plants were harvested and the leaves and inflorescences were frozen in liquid nitrogen and immediately lyophilised to prevent the compounds of interest from degrading until it was time to determine the glucosinolates and metabolites of interest.
The analyses were carried out on the leaf and inflorescence at the time of collecting the commercial size. The method used for extracting glucosinolates was based on the method developed by the research group and currently in the public domain: Dominguez-Perles et al. (2010) Journal of Food Science 75, 383-392. The quantitative analysis was carried out by HPLC-DAD. The lyophilised and ground samples (100 mg) were extracted with 1 ml of 70% MeOH in a hot bath at 70° C. for 30 minutes, stirring every 5 minutes in a vortex, to optimise the extraction. The reaction was then stopped in an ice bath and the samples were centrifuged to precipitate the insoluble material, for 15 minutes, at 10,000 g and at 4° C. The supernatant was collected and the methanol was removed on a rotary evaporator with a thermostatically controlled bath at 38° C. The dry residue obtained was redissolved in ultra-pure water and filtered (00.22 μm of PVDF) for the subsequent analysis thereof.
Each sample (20 μl) was analysed in high-performance liquid chromatography (HPLC) equipped with a pump for binary eluent partitioning, an inline degasser, a photodiode detector autosampler (DAD). The compounds were separated in a C18 column measuring 250×4 mm and with a 0.4 um pore diameter, in reversed phase liquid chromatography (RP-HPLC) mode. The glucosinolates were identified using the methodology already described by the research group and publicly available for multipurpose analysis of intact glucosinolates (Martinez-Sánchez et al. 2006 Postharvest Biol. Technol. 42, 86-97; Dominguez-Perles et al. (2010) Journal of Food Sci. 75, 383-392), based on the retention times of the respective analytical peaks, the maximum absorption spectra thereof in the UV-Vis range and the comparison with commercially available external standards, sinigrin for aliphatic glucosinolates and glucobrassicin for indolic glucosinolates (Baenas et al. (2012) J. Agric. Food Chemistry, 60, 11409-11420). The detection was carried out at 227 nm and the concentration of glucosinolates was expressed in μmol/g of plant tissue dry weight. […]

Drop dispersion = assay type: physicochemical; conditions: under binoculars (1.6×), FIG. 3
Protocol: The drop dispersion of Compositions 1 and 2 and that of elicitor Composition (MeJA) was determined under binoculars (1.6×) (FIG. 3).

[2] = test system: Brassica oleracea var. Italica Parthenon; conditions: in vivo
Protocol: as §1

| drop dispersion (Drop dispersion) | % of Commercial heads [2] | Molecule | Total GLS ([1]; INFLORESCENCE) | mg GBS/g DW ([1]; INFLORESCENCE) | mg GRA/g DW ([1]; INFLORESCENCE) | mg NGB/g DW ([1]; INFLORESCENCE) | Total GLS ([1]; LEAF) | mg GBS/g DW ([1]; LEAF) | mg GRA/g DW ([1]; LEAF) | mg NGB/g DW ([1]; LEAF) |
| --- | --- | --- | --- | --- | --- | --- | --- | --- | --- | --- |
| no dispersion is observed | 100% | CC/C=C\CC1C(=O)CCC1CC(=O)OC (centres unmarked) [MeJA, methyl jasmonate] | 4.97 mg/g DW | 2.05 mg/g DW | 1.70 mg/g DW | 1.22 mg/g DW | 1.75 mg/g DW | 0.71 mg/g DW | 0.35 mg/g DW | 0.69 mg/g DW |
|  | 81.1% | Triton X-100 |  |  |  |  |  |  |  |  |
